Test results as given in patent US20040121991A1, “Dehydroepiandrosterone (DHEA) congeners for prevention and/or treatment of ulcers” (priority 2002, published 2004).
“And” between values parts separate entries of the source, which are not always exact repeats. Equal entries are not always repeated.

Experiments:
[1] = system: oral mucositis; assay: Acute radiation model of oral mucositis in hamsters; assay type: in vivo, Male Golden Syrian hamsters; details: day -1 to day 27; for weight change following irradiation: 40 Gy on day 0, DHEA-cyclodextrin complex; for daily mucositis scores vs saline control: score scale 0-5
Excerpt: The acute radiation model in hamsters (see, e.g., Sonis et al., 2000) has proven to be an accurate, efficient and cost-effective technique to provide a preliminary evaluation of anti-mucositis compounds. The course of mucositis in this model is well defined and results in peak ulceration scores approximately 14-16 days following radiation. The acute model has been used to study specific mechanistic elements in the pathogenesis of mucositis. Molecules that show efficacy in the acute radiation model may be further evaluated in the more complex models of fractionated radiation, chemotherapy, or concomitant therapy. In this example, an acute radiation dose of 40 Gy on day 0 was administered and clinically significant mucositis was observed around day 14.
Animals. Male Golden Syrian hamsters were randomly and prospectively divided into six (6) treatment groups prior to irradiation as follows:
Hamsters were given an acute radiation dose directed to their oral mucosa. Test materials were applied by injection (once per day) or by oral dosing (either once or twice per day. Oral administrations were done using feeding needles. Dosing began the day before radiation (day −1) and continued until day 27. The test material utilized was an Inflabloc® pharmaceutical preparation, which, for the present example, comprised a complex of DHEA and cyclodextrin.
Starting on Day 6 and continuing every second day thereafter (days 8, 10, 12, 14, 16, 18, 20, 22, 24, 26, & 28), each animal was evaluated for mucositis scoring.
Mucositis Scoring. Parameters measured were the mucositis score, weight change and survival. For the evaluation of mucositis, the animals were anesthetized with inhalation anesthetics, and the left pouch everted. Mucositis was scored visually by comparison to a validated photographic scale, ranging from 0 for normal, to 5 for severe ulceration (clinical scoring).
A score of 1-2 is considered to represent a mild stage of the disease, whereas a score of 3-5 is considered to indicate moderate to severe mucositis. Following visual scoring, a photograph was taken of each animal's mucosa using a standardized technique. At the conclusion of the experiment, all film was developed and the photographs randomly numbered. At least two independent trained observers graded the photographs in blinded fashion using the above-described scale (blinded scoring).
The effect on mucositis of each drug treatment compared to placebo was assessed according to these parameters: the difference in the number of days hamsters in each group have severe (score 3) mucositis and the rank sum differences in daily mucositis scores. On each evaluation day, the number of animals with a blinded mucositis score of 3 in each drug treatment group, was compared to the control group. Differences were analyzed on a cumulative basis. For each evaluation day the scores of the control group were compared to those of the placebo group and vehicle group.
Mucositis Induction. Mucositis was induced using a standardized acute radiation protocol using a single dose of radiation (40 Gy/dose) on Day 0.

[2] = system: TNBS-induced colonic damage; assay type: in vivo, Male Wistar rats
Protocol: In this Example, the effects of DHEA were evaluated in the TNBS model (see, e.g., Boughton-Smith et al., 1988; Morris et al., 1989; Reuter et al., 1996) at a defined oral dose administered twice a day by gavage, using a low intracolonic concentration of TNBS (10 mg). This challenge dose of TNBS is known to generate reproducible yet not unduly severe mucosal injury in the colon, as determined 3 days after instillation. In this current investigation, colonic macroscopic injury has been assessed. In addition to DHEA, the effect of a single daily low oral dose of dexamethasone, which has a broad profile of anti-inflammatory actions, was also evaluated in this model.
Male Wistar rats (220-300 g) were randomised into groups before commencement of the study. On day 0, the rats were transiently anaesthetised with ether and TNBS (10 mg in 0.25 ml of 50% ethanol) was instilled into the colon using a soft plastic catheter inserted in the rat rectum. The rats were allowed to recover with free access to food and drinking water. At the end of the Experiment, 72 h after TNBS administration (i.e. on the morning of day 3), the distal colon was dissected, photographed and stored appropriately for subsequent analyses. Macroscopic scoring of distal 8 cm of colon was measured as the primary efficacy parameter. In addition, the weight of the colonic segment was assessed as an indirect and non-specific marker of oedema, and the body weight of the animals was determined each day of the study.
The groups (n=8-12) for study with TNBS challenge were: (a) saline control administered in 0.5 ml p.o. per rat, b.i.d; (b) DHEA (50 mg per rat, b.i.d); (c) dexamethasone (0.3 mg/kg, oral, once daily); (d) control non-challenged with TNBS and non-drug-treated (received only salineb.i.d.). The DHEA was administered orally, twice daily for 48 h before TNBS administration, on Day 0 with TNBS administration and on Day 1 and 2. The DHEA was administered as a solid bicarbonate composite providing high bioavailability. Tissues were removed 72 h after TNBS administration (Day 3). Saline treated animals on the final day were 95.6+/−1.7% of mean starting body weight. Similarly, DHEA-treated animals were 95.4+/−1.1% of their mean starting body weight. Weight loss in the Dexamethasone treatment group was significant at 84.5+/−1.3% of starting weight.

SMILES	weight change following irradiation ([1]; 25 mg/kg/day ip)	daily mucositis scores vs saline control ([1]; 50 mg/kg i.p.)	weight change following irradiation ([1]; 50 mg/kg/day ip)	weight change following irradiation ([1]; 250 mg/kg/day p.o.)	daily mucositis scores vs saline control ([1]; 500 mg/kg/day oral)	weight change following irradiation ([1]; 500 mg/kg/day p.o.)	body weight on the final day, % of mean starting body weight ([2]; DHEA 50 mg per rat b.i.d. oral, solid bicarbonate composite, TNBS 10 mg, day 3)	area of colonic injury, % of total colonic area of the segment ([2]; DHEA 50 mg per rat b.i.d. oral, 72 h after TNBS challenge, TNBS control 48±2%)	reduction in the area of colonic injury ([2]; DHEA 50 mg per rat b.i.d. oral, vs TNBS control, P<0.001)	colon weight of the standard segment (index of inflammatory oedema) ([2]; DHEA 50 mg per rat b.i.d. oral, vs saline + TNBS, end of study)	area of colonic injury, % of the mucosal area ([2]; dexamethasone 0.3 mg/kg once a day oral, 72 h after TNBS challenge, n=8, TNBS control 48±2%)
C[C@]12CC[C@H](O)CC1=CC[C@@H]1[C@@H]2CC[C@]2(C)C(=O)CC[C@@H]12 [DHEA, (3β)-3-hydroxyandrost-5-en-17-one]	weight gain patterns that closely corresponded to those observed in the control group	significantly lower than those in the saline control group	weight gain patterns that closely corresponded to those observed in the control group	no pattern of weight loss	significantly lower than those in the saline control group	no pattern of weight loss	95.4+/−1.1%	31+/−3%	40% and ~40%	significantly (P<0.001) reduced	
C[C@@H]1C[C@H]2[C@@H]3CCC4=CC(=O)C=C[C@]4(C)[C@@]3(F)[C@@H](O)C[C@]2(C)[C@@]1(O)C(=O)CO [dexamethasone]											41±5%
